# From US8436039B2, “Inhibitors of the ATB(0,+) transporter and uses thereof” (Georgia Health Sciences University Research Institute, Inc., priority 2008, dated 2013)
# Tests used:
# human LAT1/4F2hc = human LAT1/4F2hc (Homo sapiens, UniProt Q01650); assay: Inhibition of LAT1 transport function: L-valine uptake in HRPE cells co-expressing human LAT1 and human 4F2hc; type: cell-based; settings: for effect on cDNA-induced valine uptake: 1 mM, L-[14C]valine 0.75 μM, 5 min
# ATB^0,+ in MCF7 cells = molecular target: T1, ATB^0,+ in MCF7 cells (Homo sapiens, UniProt Q9UN76); assay: D-serine uptake in MCF7 cells (constitutively expressed ATB^0,+); type: cell-based; settings: for IC50: D-serine 5 μM, NaCl, read-out: IC50 for inhibition of D-serine uptake
# T1 construct: host or cells: MCF7
# T1 sequence (Q9UN76 1-642): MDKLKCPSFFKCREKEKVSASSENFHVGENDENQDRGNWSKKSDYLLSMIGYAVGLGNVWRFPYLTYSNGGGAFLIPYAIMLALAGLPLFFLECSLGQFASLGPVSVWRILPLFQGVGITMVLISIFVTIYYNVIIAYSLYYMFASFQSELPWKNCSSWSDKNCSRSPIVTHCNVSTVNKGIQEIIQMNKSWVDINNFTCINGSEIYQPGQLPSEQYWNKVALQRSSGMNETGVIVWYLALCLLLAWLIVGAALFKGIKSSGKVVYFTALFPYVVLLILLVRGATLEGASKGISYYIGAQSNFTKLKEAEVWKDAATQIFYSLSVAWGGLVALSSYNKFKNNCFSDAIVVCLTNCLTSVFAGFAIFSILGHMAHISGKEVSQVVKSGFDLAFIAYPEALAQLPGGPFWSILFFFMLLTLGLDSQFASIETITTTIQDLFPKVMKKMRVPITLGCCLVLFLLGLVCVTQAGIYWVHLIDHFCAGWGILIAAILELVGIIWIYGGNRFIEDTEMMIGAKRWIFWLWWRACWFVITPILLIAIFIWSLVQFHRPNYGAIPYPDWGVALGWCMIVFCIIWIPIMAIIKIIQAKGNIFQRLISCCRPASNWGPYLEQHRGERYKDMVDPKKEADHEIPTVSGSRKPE
# Protocol: Cells were seeded and grown in 24-well culture plates to confluency and used for uptake measurements. Radiolabelled glycine or D-serine was used as the substrate to determine the transport function of ATB^0,+. Uptake measurements were routinely made in an NaCl-containing buffer (25 mM Hepes/Tris buffer, pH 7.4, 140 mM NaCl, 5.4 mM KCl, 1.8 mM CaCl2, 0.8 mM MgSO4 and 5 mM glucose). Ion dependence of the transport process was evaluated by studying the uptake activity in buffers of varying compositions. NaCl in the uptake buffer was replaced iso-osmotically with NMDG (N-methyl-D-glucamine) chloride to prepare an Na^+-free buffer, and with sodium gluconate to prepare a Cl^−-free buffer. Linear uptake rates were determined by employing a 10 min incubation period, based on time course experiments. Na^+-activation kinetics was analysed by studying the uptake rates in the presence of varying concentrations of Na^+ (2.5-140 mM) in the uptake buffer with Cl^− concentration kept constant at 140 mM. This was done by replacing NaCl with appropriate concentrations of NMDG. Cl^−-activation kinetics was analysed by studying the uptake rates in the presence of varying concentrations of Cl^− (2.5-100 mM) in the uptake buffer with Na^+ concentration kept constant at 140 mM. This was done by replacing NaCl with appropriate concentrations of sodium gluconate. Uptake data for Na^+- and Cl^−-activation kinetics were analysed using the Hill equation, and values for K0.5 for Na^+ and Cl^− and for the Hill coefficient (h) were determined by linear and non-linear regression methods. A commercially available software program (Sigma Plot, version 6.0; SPSS) was used for this purpose. Substrate specificity of the uptake process was evaluated by monitoring the effects of unlabelled amino acids (5 mM) on the uptake of radiolabelled glycine or D-serine (5 μM: radiolabelled substrate, 0.05 μM; unlabelled substrate, 4.95 μM).
# The kinetic nature of inhibition of D-serine uptake by α-methyl-DL-tryptophan was investigated in MCF7 cells by monitoring the uptake at increasing concentrations of D-serine (range, 50-2000 μM) in the absence and presence of 100 μM α-methyl-DL-tryptophan. The kinetic parameters were calculated by linear regression (Eadie-Hofstee plots) and the values were confirmed by non-linear regression.
# We employed a similar experimental strategy to detect specifically the transport function of ATB^0,+ in the remaining seven cell lines. […] We also investigated the effect of α-methyl-DL-tryptophan on D-serine uptake in MCF7 cells.
# [1] = α-methyl-DL-tryptophan 100 μM, MCF7 cells
# Sequence of human LAT1/4F2hc (Q01650 whole entry): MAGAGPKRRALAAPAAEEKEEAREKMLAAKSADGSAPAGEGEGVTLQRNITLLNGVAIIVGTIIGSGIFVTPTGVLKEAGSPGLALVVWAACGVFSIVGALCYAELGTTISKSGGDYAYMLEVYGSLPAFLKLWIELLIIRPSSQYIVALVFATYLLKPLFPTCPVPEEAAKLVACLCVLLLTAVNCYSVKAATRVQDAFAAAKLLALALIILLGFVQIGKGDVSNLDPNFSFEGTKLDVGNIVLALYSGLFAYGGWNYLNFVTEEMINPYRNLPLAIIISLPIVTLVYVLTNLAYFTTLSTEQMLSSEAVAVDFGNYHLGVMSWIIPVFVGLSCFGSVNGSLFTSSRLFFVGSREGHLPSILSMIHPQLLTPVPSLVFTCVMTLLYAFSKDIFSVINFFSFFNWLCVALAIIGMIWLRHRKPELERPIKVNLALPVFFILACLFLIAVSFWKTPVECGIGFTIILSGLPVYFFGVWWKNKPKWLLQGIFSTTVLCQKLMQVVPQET
# Sequence of human LAT1/4F2hc (P08195 102-630 partner): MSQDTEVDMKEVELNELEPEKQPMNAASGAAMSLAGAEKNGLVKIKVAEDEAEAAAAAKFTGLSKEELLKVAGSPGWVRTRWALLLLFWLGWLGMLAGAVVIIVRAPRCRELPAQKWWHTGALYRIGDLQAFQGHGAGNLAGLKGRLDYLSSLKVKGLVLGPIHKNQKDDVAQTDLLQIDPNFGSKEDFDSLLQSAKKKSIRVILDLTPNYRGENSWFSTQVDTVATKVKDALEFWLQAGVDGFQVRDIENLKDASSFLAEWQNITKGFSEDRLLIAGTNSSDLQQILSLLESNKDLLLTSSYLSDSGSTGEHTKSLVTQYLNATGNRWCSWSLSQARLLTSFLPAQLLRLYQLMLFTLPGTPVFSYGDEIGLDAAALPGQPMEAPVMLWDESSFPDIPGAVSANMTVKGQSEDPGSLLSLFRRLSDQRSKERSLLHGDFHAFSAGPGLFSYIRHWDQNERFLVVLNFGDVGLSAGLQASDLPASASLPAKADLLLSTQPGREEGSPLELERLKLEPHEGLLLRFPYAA
smiles,measurement,setting,value
Cn1cc(C[C@H](N)C(=O)O)c2ccccc21 [1-methyl-L-tryptophan],effect on cDNA-induced valine uptake,human LAT1/4F2hc,abolished completely
same,IC50,"ATB^0,+ in MCF7 cells; MCF7 cells",86 ± 11 µM
same,IC50 of L-isomer lower compared with D-isomer,"ATB^0,+ in MCF7 cells; D-serine uptake, MCF7 cells",at least 15 fold
Cn1cc(C[C@@H](N)C(=O)O)c2ccccc21 [1-methyl-D-tryptophan],IC50,"ATB^0,+ in MCF7 cells; MCF7 cells",1580 ± 180 µM
Cn1cc(CC(N)C(=O)O)c2ccccc21 (racemic) [1-methyl-DL-tryptophan],effect on cDNA-induced valine uptake,human LAT1/4F2hc,abolished completely
same,IC50,"ATB^0,+ in MCF7 cells; MCF7 cells",221 ± 40 µM
CC(N)(Cc1c[nH]c2ccccc12)C(=O)O (racemic) [α-methyl-DL-tryptophan],type of inhibition of LAT1,human LAT1/4F2hc,competitive inhibitor
same,effect on cDNA-induced valine uptake,human LAT1/4F2hc,abolished completely
same,kinetic nature of inhibition of D-serine uptake,"ATB^0,+ in MCF7 cells; 100 μM blocker, D-serine 50-2000 μM, Eadie-Hofstee",competitive
same,Kt for D-serine uptake in the presence of blocker,"ATB^0,+ in MCF7 cells; [1]",869 ± 52 µM
same,Vmax for D-serine uptake in the presence of blocker,"ATB^0,+ in MCF7 cells; [1]",33.3±1.4 nmol/mg of protein per 15 min
